Read-outs that look alike come from different tables or passages of the source.
Assays:
[1] = tested on: HCT116 MTAP null cells; assay: HCT116 MTAP null cell line proliferation (CellTiter-Glo cell viability, 6 days); type: cell-based; settings: HCT116 MTAP null cells, 6 days of treatment, CellTiter-Glo cell viability, read-out: HCT-116 MTAP null IC50
Summary of the method: (§1)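 Isogenic HCT116 pair (both MTAP alleles knocked out vs parent) in RPMI 1640 + 10% FBS, seeded overnight at 37° C, 5% CO2, then exposed 6 days to 8- or 9-point 1:3 dilutions from 1 or 10 μM. CellTiter-Glo luminescence; IC50 from sigmoidal fit, Hill slope fixed −1, top 100%, or 4-parameter logistic.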

[2] = tested on: HCT116 WT cells; assay: HCT116 WT cell line proliferation (CellTiter-Glo cell viability, 6 days); type: cell-based; settings: HCT116 WT (parent) cells, 6 days of treatment, CellTiter-Glo cell viability, read-out: HCT-116 WT IC50
Summary of the method: as §1

Compound | IC50 [1] [nM] | IC50 [2] [nM] | IC50 ([1]; HCT116-MTAP null, 144 h) [nM] | IC50 ([2]; Homo sapiens, HCT-116, 144 h) [nM]
(4-amino-1-methyl-1H- pyrazolo[4,3- c][1,7]naphthyridin-8- yl)((3R)-3-(4- (trifluoromethyl)benzyl)-1- pyrrolidinyl)methanone and (4-amino-1-methyl-1H- pyrazolo[4,3- c][1,7]naphthyridin-8- yl)((3S)-3-(4- (trifluoromethyl)benzyl)-1- pyrrolidinyl)methanone [Example 432] | 616 | 22700 |  | 
Nc1nc2ccc(C(=O)N3CCOC[C@H]3c3ccc(C(F)(F)F)nc3)cc2c2c1COC2 (single isomer, unassigned) [Example 610] |  |  | > 1000 | > 10000
C[C@H]1OCc2c1c(N)nc1ccc(C(=O)N3CC(c4ccccc4)C4CCCC43)cc21 (stereo partly drawn) [Example 395, ((3R)-4-amino-3-methyl-1,3-dihydrofuro[3,4-c]quinolin-8-yl)(3-phenylhexahydrocyclopenta[b]pyrrol-1(2H)-yl)methanone] |  |  | 303 | 8240
CCOc1ccc([C@@H]2COC[C@H](C)N2C(=O)c2cc3c4c(c(N)nc3cn2)[C@@H](C)OC4)nn1 (racemic) [Example 326, ((3R)-4-amino-3-methyl-1,3-dihydrofuro[3,4-c][1,7]naphthyridin-8-yl)((3R,5S)-3-(6-ethoxy-3-pyridazinyl)-5-methyl-4-morpholinyl)methanone and ((3R)-4-amino-3-methyl-1,3-dihydrofuro[3,4-c][1,7]naphthyridin-8-yl)((3S,5R)-3-(6-ethoxy-3-pyridazinyl)-5-methyl-4-morpholinyl)methanone] |  |  | 72 | 2580
Nc1nc2ccc(C(=S)N3CCOC[C@@H]3c3ccc(C(F)(F)F)cc3)cc2c2c1COC2 [Example 625, (S)-(4-amino-1,3-dihydrofuro[3,4-c]quinolin-8-yl)(3-(4-(trifluoromethyl)phenyl)morpholino)methanethione] |  |  | 882 | 7260
Nc1nc2ccc(C(=O)N3CCOC[C@@H]3c3ccc(OC(F)(F)F)nc3)cc2c2c1COC2 (single isomer, unassigned) [Example 592] |  |  | 145 | 8900
CC1CN(C(=O)c2ccc3nc(N)c4c(c3c2)CO[C@@H]4C)CC1c1ccc(Br)cc1 (stereo partly drawn) [Example 402, ((3R)-4-amino-3-methyl-1,3-dihydrofuro[3,4-c]quinolin-8-yl)(3-(4-bromophenyl)-4-methylpyrrolidin-1-yl)methanone] |  |  | 833 | 13300
Cn1ncc2c(N)nc3cc(F)c(C(=O)N4C[C@@H](CO)[C@H](c5ccc(C(F)(F)F)cc5F)C4)cc3c21 [Example 446, (4-amino-7-fluoro-1-methyl-1H-pyrazolo[4,3-c]quinolin-8-yl)((3R,4S)-3-(2-fluoro-4-(trifluoromethyl)phenyl)-4-(hydroxymethyl)-1-pyrrolidinyl)methanone] |  |  | 14 | 240
Nc1nc2ccc(C(=O)N3CCOC[C@H]3c3cccc(Cl)c3)cc2c2c1COC2 (single isomer, unassigned) [Example 578] |  |  | > 1000 | > 10000
C[C@@H]1COC[C@H](c2ccc(C(F)(F)F)cn2)N1C(=O)c1cc2c(cc1F)nc(N)c1cnn(C)c12 [Example 519, (4-amino-7-fluoro-1-methyl-1H-pyrazolo[4,3-c]quinolin-8-yl)((3R,5S)-3-methyl-5-(5-(trifluoromethyl)-2-pyridinyl)-4-morpholinyl)methanone] |  |  | 4 | 26
C[C@H]1OCc2c1c(N)nc1ccc(C(=O)N3CC[C@](F)(c4ccc(C(F)(F)F)cc4)C3)cc21 [Example 438, ((3R)-4-amino-3-methyl-1,3-dihydrofuro[3,4-c]quinolin-8-yl)((3S)-3-fluoro-3-(4-(trifluoromethyl)phenyl)-1-pyrrolidinyl)methanone] |  |  | 878 | 15200
C[C@H]1OCc2c1c(N)nc1ccc(C(=O)N3C[C@@H](c4ccccc4)[C@@H]4CCC[C@@H]43)cc21 [Example 400, ((3R)-4-amino-3-methyl-1,3-dihydrofuro[3,4-c]quinolin-8-yl)((3R,3aS,6aS)-3-phenylhexahydrocyclopenta[b]pyrrol-1(2H)-yl)methanone] |  |  | 159 | 7000
Cn1ncc2c(N)nc3ccc(C(=O)N4CCOC[C@@H]4c4ccc(OC(F)F)nn4)cc3c21 [Example 553, (4-amino-1-methyl-1H-pyrazolo[4,3-c]quinolin-8-yl)((3S)-3-(6-(difluoromethoxy)-3-pyridazinyl)-4-morpholinyl)methanone] |  |  | 513 | 32500

More lines, in order of falling IC50 ([1]; HCT116-MTAP null, 144 h), values ahead:

IC50 [1] [nM] | IC50 [2] [nM] | IC50 ([1]; HCT116-MTAP null, 144 h) [nM] | IC50 ([2]; Homo sapiens, HCT-116, 144 h) [nM] | Compound
 |  | 656 | > 10000 | Nc1nc2ccc(C(=O)N3CCOC[C@@H]3c3ccc(OC(F)(F)F)cc3)cc2c2c1COCC2 [Example 484, (5-amino-2,4-dihydro-1H-pyrano[3,4-c]quinolin-9-yl)-[(3S)-3-[4-(trifluoromethoxy)phenyl]morpholin-4-yl]methanone]
 |  | 380 | 32000 | C[C@H]1OCc2c1c(N)nc1ccc(C(=O)N3CC(c4ccccc4)C4COCCC43)cc21 (stereo partly drawn) [Example 397, ((3R)-4-amino-3-methyl-1,3-dihydrofuro[3,4-c]quinolin-8-yl)(3-phenylhexahydropyrano[4,3-b]pyrrol-1(4H)-yl)methanone]
 |  | 155 | 5640 | Cc1n[nH]c2c1c(N)nc1cnc(C(=O)N3CCOC[C@@H]3c3ccc(C(F)(F)F)cc3)cc12 [Example 406, (4-amino-3-methyl-1H-pyrazolo[4,3-c][1,7]naphthyridin-8-yl)((3S)-3-(4-(trifluoromethyl)phenyl)-4-morpholinyl)methanone]
 |  | 93 | 4960 | CCOc1ccc([C@@H]2COC[C@H](C)N2C(=O)c2ccc3nc(N)c4c(c3c2)CO[C@@H]4C)nn1 (racemic) [Example 321, ((3R)-4-amino-3-methyl-1,3-dihydrofuro[3,4-c]quinolin-8-yl)((3R,5S)-3-(6-ethoxy-3-pyridazinyl)-5-methyl-4-morpholinyl)methanone and ((3R)-4-amino-3-methyl-1,3-dihydrofuro[3,4-c]quinolin-8-yl)((3S,5R)-3-(6-ethoxy-3-pyridazinyl)-5-methyl-4-morpholinyl)methanone]
 |  | 24 | 778 | C[C@H]1OCc2c1c(N)nc1cnc(C(=O)N3CCOC[C@@H]3c3ccc(C(F)(F)C(F)(F)F)cc3)cc21 (single isomer, unassigned) [Example 454]
 |  | 21 | 887 | Cn1ncc2c(N)nc3cc(F)c(C(=O)N4CC(O)(c5ccc(C(F)(F)F)cc5)C4)cc3c21 [Example 439, (4-amino-7-fluoro-1-methyl-1H-pyrazolo[4,3-c]quinolin-8-yl)(3-hydroxy-3-(4-(trifluoromethyl)phenyl)-1-azetidinyl)methanone]
 |  | 13 | 198 | Cn1ncc2c(N)nc3cc(Cl)c(C(=O)N4CCOC[C@@H]4c4ccc(C(F)(F)F)cc4)cc3c21 [Example 546, (4-amino-7-chloro-1-methyl-1H-pyrazolo[4,3-c]quinolin-8-yl)((3S)-3-(4-(trifluorometliyl)phenyl)-4-morpholinyl)methanone]
 |  | 13 | 215 | C[C@@H]1COC[C@H](c2ccc(C(F)(F)F)cc2)N1C(=O)c1cc2c(cc1F)nc(N)c1c2cnn1C [Example 531, (4-amino-7-fluoro-3-methyl-3H-pyrazolo[3,4-c]quinolin-8-yl)((3R,5S)-3-methyl-5-(4-(trifluoromethyl)phenyl)-4-morpholinyl)methanone]
